The values below come from ChEMBL document CHEMBL1201862, “PubChem BioAssay data set” (2004).

Test [1] can be described thus: inhibitors of firefly luciferase expression or activity, dose response, H4 neuroglioma cells, luminescence (AID 1990). Type of test: functional, cell-based.
Test [2] can be described thus: luciferase reporter signal reduction – luminescence, H4-C neuroglioblastoma cells, dose response (AID 2458).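 Further: H4 neuroglioblastoma cells stably carrying a luciferase reporter gene fusion.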 Type of test: functional, cell-based. In general terms: Reporter assays use an easily measured gene product as a stand-in for the process of interest.
A further test is described as follows: cells. The class given is functional, cell-based.
Test [3] in a line: Luminescence Cell-Based Dose Response HTS to Identify Inhibitors of 5'UTR Stem-Loop Driven Prion Protein mRNA Translation in H4 Neuroglioblastoma Cells. [Related pubchem assays: 1827 (Project Summary), 1813 (Primary HTS)]. The class given is functional.
The nature of test [4]: inhibitors of SNCA 5'UTR-driven reporter translation, confirmation, H4 neuroglioma cells, luminescence (AID 1988). Type of test: functional, cell-based.
A further test has as its system J774.A1. Put plainly: Confirmation of image-based Screening Assay for Inhibitors of Phagocytosis. [Related pubchem assays (depositor defined):AID1029, AID1643]. Type of test: functional, cell-based. Conditions: Mus musculus.
Test [5] is described as follows: inhibitors of SNCA 5'UTR-driven translation, confirmation, luminescence, H4 neuroglioblastoma cells, dose confirmation (AID 2454).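 Further: H4 neuroglioblastoma cells carrying an alpha-synuclein 5'UTR luciferase reporter; potency for inhibition of the luciferase signal.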 The class given is functional, cell-based.
A further test deals with Protein Rev (Human immunodeficiency virus type 1 group M subtype B (isolate HXB2)(HIV-1), UniProt P04618). Description: inhibitors of Rev binding to RRE RNA, dose response, biochemical, fluorescence polarization, HIV-1 (AID 434976). Details: species or system Human immunodeficiency virus 1. (In fluorescence polarisation assays a small probe gives low polarisation when free and higher when bound to something large.)

In test [6] the target is Female germline-specific tumor suppressor gld-1 (Caenorhabditis elegans, UniProt Q17339). Description: inhibitors of GLD-1 binding to TGE RNA, dose response, biochemical, fluorescence polarization, C. elegans (AID 2802).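 Further: fluorescence polarization of labeled TGE RNA bound by purified gld-1 protein.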
In test [7] the test system is Streptococcus sp. 'group A'. Description: growth inhibition of control SK(-) GAS strain, dose response, counter-screen for streptokinase expression inhibitor project, luminescence, kanamycin, BacTiterGlo, confirmation (AID 1900). Type of test: functional, organism-based.
For test [8], the system named is Streptococcus. Description: Luminescence Microorganism-Based Dose Response Follow up to Identify Compounds Cytotoxic to Streptococcus. [Related pubchem assays: 1677 (Project Summary), 1915, 1914, 1902 (Retest at Dose), 1900 (Counter Screen), 1662 (Primary HTS)]. The class given is functional, organism-based. Background: Counterscreens check selectivity or assay interference.

In a further test the target is T1, Streptokinase A (Streptococcus pyogenes serotype M1, UniProt P10520).
T1 sequence (P10520 whole entry): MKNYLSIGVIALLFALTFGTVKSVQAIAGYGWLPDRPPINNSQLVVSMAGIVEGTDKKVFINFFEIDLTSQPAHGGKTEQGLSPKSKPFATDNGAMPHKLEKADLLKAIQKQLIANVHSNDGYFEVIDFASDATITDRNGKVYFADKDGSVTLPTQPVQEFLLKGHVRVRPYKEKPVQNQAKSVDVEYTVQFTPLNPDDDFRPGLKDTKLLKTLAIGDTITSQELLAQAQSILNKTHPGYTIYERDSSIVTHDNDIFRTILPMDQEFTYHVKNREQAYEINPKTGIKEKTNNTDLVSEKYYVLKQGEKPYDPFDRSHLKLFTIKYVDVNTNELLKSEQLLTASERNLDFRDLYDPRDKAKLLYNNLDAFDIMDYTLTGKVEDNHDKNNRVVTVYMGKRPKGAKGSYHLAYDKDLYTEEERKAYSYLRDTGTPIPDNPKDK
Description: S. pyogenes streptokinase expression inhibitors, potency, dose response, plasminogen activation absorbance, OD405 (AID 1914).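 Further: secreted streptokinase activity via plasminogen activation per viability signal from cell pellet.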 The class given is functional, Streptococcus pyogenes M1 GAS.

Test [9] deals with Streptococcus. Put plainly: Group A Streptococcus viability loss, dose response, counter-screen for streptokinase expression inhibitor project, luminescence, BacTiterGlo (AID 1915).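 Further: potency for reduction of bacterial viability or growth.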 The class given is functional, organism-based.
A further test concerns HeLa. Description: HeLa cell cytotoxicity, dose response, cytotoxicity control, 24 h, cherry-picked samples (AID 504726).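 Further: potency for cytotoxicity as loss of luminescence signal.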 As to conditions: Homo sapiens. Type of test: functional, cell-based.
The target in test [10] is Photoreceptor-specific nuclear receptor (Homo sapiens, UniProt Q9Y5X4). The class given is functional.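 Further: potency for compounds that break the NR2E3 corepressor complex and count as activators.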
Test [11] concerns the target Peroxisome proliferator-activated receptor gamma/Nuclear receptor coactivator 1 (Homo sapiens, UniProt P37231). Description: TR-FRET dose response biochemical High Throughput Screening assay for agonists of the steroid receptor coactivator 1 (SRC-1) recruitment by the peroxisome proliferator-activated receptor gamma (PPAR gamma): non-selective agonists. [Related pubchem assays (depositor defined):AID1300, AID1808, AID504735, AID631]. Type of test: protein assay.

The target of test [12] is Peroxisome proliferator-activated receptor gamma/Nuclear receptor coactivator 3 (Homo sapiens, UniProt P37231). Put plainly: TR-FRET dose response biochemical High Throughput Screening assay for agonists of the steroid receptor coactivator 3 (SRC-3) recruitment by the peroxisome proliferator-activated receptor gamma (PPAR gamma): non-selective agonists. [Related pubchem assays: 1301 (Confirmation screen.), 1048 (Primary screen.)]. The class given is functional.

Test [13] deals with Peroxisome proliferator-activated receptor gamma/Nuclear receptor coactivator 2 (Homo sapiens, UniProt P37231). Put plainly: TR-FRET dose response biochemical High Throughput Screening assay for agonists of the steroid receptor coactivator 2 (SRC-2) recruitment by the peroxisome proliferator-activated receptor gamma (PPAR gamma): non-selective agonists. [Related pubchem assays: 1297, 1032 ]. Type of test: functional.

The target of test [14] is Peroxisome proliferator-activated receptor gamma/Nuclear receptor corepressor 2 (Homo sapiens, UniProt P37231+Q9Y618). Type of test: functional.
In the next test the target is fMet-Leu-Phe receptor (Homo sapiens, UniProt P21462). Description: FPR ligands, dose response (AID 519). The class given is functional.
For the next test, the target named is X-box-binding protein 1 (Homo sapiens, UniProt P17861). The class given is functional, Cricetulus griseus.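 Further: confirmatory dose-response counter-screen serving a CHOP assay.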

Active and inactive are the calls of the source. Some results are limits rather than exact numbers.

As usually defined, the EC50 is the concentration giving half of the maximal effect. The IC50 is the concentration that gives 50% inhibition. Usually AC50 stands for the midpoint of the concentration-response curve, whichever way the signal moves. For orientation: Ki means the dissociation constant of the complex between target and ligand, obtained from inhibition or displacement.

Sequence of X-box-binding protein 1 (P17861 whole entry): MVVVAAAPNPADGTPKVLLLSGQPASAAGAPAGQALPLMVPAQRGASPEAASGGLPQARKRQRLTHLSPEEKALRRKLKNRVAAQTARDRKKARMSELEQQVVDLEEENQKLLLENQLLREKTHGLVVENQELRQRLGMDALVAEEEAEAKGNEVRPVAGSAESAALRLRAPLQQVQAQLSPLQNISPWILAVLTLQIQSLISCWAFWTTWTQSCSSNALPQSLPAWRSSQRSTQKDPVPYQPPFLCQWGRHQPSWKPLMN
Sequence of fMet-Leu-Phe receptor (P21462 whole entry): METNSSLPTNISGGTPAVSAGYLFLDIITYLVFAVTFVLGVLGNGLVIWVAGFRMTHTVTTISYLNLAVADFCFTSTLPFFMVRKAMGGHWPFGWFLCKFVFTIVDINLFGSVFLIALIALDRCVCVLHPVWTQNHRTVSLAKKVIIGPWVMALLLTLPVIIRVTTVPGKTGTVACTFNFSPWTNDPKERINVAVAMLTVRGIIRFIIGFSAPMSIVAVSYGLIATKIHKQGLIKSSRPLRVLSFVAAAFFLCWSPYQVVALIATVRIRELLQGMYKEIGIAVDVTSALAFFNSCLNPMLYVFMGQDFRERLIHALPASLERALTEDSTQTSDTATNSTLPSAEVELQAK
Sequence of Photoreceptor-specific nuclear receptor (Q9Y5X4 whole entry): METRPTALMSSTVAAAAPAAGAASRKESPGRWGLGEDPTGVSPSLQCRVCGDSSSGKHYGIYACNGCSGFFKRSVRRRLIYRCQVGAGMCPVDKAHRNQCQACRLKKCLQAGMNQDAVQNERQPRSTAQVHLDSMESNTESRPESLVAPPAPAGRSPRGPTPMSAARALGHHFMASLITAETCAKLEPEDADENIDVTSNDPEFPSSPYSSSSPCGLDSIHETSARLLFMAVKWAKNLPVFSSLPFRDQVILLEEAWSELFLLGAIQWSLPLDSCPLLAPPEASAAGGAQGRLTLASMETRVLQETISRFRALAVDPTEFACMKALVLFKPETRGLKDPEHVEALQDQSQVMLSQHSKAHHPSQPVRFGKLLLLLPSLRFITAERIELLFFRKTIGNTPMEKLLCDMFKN
Sequence of Protein Rev (P04618 whole entry): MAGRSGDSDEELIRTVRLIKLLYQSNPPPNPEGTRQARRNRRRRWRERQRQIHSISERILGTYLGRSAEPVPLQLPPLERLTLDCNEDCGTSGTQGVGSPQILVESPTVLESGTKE
Sequence of Peroxisome proliferator-activated receptor gamma/Nuclear receptor coactivator 1 (P37231 whole entry): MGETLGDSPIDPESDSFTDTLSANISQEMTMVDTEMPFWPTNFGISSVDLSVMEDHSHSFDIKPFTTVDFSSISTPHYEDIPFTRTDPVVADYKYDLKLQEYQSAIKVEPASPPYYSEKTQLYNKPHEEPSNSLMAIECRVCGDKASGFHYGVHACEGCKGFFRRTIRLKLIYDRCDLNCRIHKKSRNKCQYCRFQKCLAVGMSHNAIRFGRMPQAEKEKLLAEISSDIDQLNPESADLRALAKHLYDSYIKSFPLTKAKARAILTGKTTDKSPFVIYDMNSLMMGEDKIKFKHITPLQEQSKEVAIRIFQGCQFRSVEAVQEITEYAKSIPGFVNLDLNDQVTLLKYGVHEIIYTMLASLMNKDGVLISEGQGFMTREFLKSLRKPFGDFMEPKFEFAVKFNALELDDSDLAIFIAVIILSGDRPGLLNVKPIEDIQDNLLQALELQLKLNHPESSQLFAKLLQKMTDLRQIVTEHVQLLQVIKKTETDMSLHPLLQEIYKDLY
Sequence of Peroxisome proliferator-activated receptor gamma/Nuclear receptor coactivator 1 (Q15788 whole entry, further chain): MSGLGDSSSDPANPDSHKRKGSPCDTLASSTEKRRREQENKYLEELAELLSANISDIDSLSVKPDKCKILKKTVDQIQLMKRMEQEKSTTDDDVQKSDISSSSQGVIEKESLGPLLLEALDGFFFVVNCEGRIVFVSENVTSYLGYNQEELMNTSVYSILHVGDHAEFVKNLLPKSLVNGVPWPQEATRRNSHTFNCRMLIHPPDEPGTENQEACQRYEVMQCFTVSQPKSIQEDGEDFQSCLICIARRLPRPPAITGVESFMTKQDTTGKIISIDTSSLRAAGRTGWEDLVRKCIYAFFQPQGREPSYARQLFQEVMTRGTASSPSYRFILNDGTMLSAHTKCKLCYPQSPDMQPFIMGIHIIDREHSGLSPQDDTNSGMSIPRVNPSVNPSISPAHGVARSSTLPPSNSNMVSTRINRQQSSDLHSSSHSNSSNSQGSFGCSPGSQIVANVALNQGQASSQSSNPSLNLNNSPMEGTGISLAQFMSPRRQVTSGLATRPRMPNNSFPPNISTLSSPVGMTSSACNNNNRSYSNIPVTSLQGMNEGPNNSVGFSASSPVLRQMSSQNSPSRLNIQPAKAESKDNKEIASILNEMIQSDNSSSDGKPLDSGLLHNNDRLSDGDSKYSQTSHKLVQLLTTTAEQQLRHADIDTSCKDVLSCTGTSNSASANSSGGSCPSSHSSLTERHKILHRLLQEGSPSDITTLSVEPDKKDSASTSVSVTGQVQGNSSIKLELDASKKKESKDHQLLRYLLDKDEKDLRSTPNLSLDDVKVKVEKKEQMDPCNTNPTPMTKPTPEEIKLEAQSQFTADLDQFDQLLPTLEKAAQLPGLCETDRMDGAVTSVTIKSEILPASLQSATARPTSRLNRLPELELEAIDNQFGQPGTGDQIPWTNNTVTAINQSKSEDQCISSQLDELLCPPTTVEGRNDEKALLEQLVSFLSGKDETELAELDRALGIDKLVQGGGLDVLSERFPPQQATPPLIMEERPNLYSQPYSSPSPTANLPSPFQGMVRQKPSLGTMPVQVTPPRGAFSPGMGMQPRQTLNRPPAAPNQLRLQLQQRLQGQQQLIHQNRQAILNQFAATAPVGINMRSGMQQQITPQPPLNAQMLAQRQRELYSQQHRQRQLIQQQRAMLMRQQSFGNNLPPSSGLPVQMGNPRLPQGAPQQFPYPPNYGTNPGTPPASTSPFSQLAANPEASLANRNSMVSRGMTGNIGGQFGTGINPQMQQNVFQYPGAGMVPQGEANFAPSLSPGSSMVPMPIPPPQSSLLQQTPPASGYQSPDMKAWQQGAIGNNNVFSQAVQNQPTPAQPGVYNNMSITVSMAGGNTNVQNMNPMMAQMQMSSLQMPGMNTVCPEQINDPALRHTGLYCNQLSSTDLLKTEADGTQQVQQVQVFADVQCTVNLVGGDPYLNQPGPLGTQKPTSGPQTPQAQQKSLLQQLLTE
Sequence of Peroxisome proliferator-activated receptor gamma/Nuclear receptor coactivator 2 (P37231 whole entry): as the sequence (P37231 whole entry) above
Sequence of Peroxisome proliferator-activated receptor gamma/Nuclear receptor coactivator 2 (Q15596 whole entry, further chain): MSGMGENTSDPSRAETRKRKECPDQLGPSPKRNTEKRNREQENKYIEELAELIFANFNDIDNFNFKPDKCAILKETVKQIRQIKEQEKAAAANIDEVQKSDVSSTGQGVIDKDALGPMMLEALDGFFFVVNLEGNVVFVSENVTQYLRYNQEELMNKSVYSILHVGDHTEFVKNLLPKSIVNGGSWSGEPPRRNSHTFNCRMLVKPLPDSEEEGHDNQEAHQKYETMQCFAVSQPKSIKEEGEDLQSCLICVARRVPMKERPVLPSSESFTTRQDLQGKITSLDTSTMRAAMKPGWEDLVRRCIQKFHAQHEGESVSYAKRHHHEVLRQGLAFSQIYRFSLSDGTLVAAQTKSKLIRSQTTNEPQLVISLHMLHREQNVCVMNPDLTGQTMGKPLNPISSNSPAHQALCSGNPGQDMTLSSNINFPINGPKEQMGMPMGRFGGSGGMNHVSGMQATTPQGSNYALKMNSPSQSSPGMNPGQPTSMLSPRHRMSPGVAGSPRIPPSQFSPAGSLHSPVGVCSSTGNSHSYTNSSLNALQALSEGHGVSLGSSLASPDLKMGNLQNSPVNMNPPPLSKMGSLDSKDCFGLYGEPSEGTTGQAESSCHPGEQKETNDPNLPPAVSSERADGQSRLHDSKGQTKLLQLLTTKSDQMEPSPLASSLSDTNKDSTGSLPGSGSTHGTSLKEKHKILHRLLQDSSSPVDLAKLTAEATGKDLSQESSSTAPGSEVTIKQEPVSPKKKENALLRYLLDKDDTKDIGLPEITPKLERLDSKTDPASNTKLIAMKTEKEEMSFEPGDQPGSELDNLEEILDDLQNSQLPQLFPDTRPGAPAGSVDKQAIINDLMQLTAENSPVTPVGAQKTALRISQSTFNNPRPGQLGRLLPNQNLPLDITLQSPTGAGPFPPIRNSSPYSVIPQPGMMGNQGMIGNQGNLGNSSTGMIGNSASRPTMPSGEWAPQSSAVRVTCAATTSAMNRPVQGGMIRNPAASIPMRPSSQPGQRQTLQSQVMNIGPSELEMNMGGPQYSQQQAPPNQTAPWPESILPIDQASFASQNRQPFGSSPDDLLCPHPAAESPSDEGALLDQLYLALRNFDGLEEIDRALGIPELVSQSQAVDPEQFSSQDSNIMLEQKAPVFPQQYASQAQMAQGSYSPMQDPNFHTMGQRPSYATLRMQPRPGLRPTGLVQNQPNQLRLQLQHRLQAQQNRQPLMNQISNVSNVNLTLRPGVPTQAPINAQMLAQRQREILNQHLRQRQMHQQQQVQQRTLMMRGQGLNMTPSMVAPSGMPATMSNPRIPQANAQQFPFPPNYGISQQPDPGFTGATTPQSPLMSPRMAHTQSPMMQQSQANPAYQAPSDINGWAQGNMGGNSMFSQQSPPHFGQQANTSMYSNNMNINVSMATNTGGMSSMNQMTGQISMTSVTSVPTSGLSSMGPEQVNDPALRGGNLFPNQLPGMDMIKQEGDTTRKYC

Take `COc1ccc(NS(=O)(=O)c2cc(C)ccc2NC(=O)c2cc(C)oc2C)cc1`: the EC50 in test [1] is 7.02 µM (active); in [2], 0.651 µM (active); in the test “cells” it was 1.07 µM (active); in test [3], 0.173 µM (active); in test [4], < 0.1 µM (active); in test [5] it was 1.11 µM (active). In the test with J774.A1, the IC50 was 0.0632 µM (active).
With `C=CCNC(=O)/C(C#N)=C/c1ccccc1[N+](=O)[O-]`, the results for the 50% inhibitory concentration (IC50) (at Protein Rev; in test [6]) were 10.4 µM (not active) and 1.1 µM (active), respectively.
Regarding `CC1CCN(C(=O)N2c3ccccc3Sc3ccccc32)CC1`, the EC50 in [7] was 13.8 µM (active); in the test with Streptococcus [8], > 500 µM (not active); on Streptokinase A it was > 150 µM (not active); in the test on Streptococcus [9] it was 28.5 µM (active).
On to `CCN(CCCNC(=O)Cn1cc2c(n1)CCCC2)c1cccc(C)c1`, for which the AC50 with HeLa was > 350 µM (inactive).
In the case of `COc1cccc2cc(C(=O)C3=C(O)C(=O)N(Cc4ccco4)C3c3cccnc3)oc12` (stereo unspecified), the IC50 in test [10] was > 39.8 µM (not active); in test [14], 2.79 µM (active). In addition, the EC50 is > 79.4 µM (inactive) in test [11], > 79.4 µM (not active) in test [12] and > 79.4 µM (not active) in [13]. In addition, the Ki at fMet-Leu-Phe receptor was > 66.7 µM (inactive).
Turning to `CCCCCCn1c(SCCC)nc2c1c(=O)[nH]c(=O)n2C`, the “Absolute IC50 (XBP1)” value on X-box-binding protein 1 turned out to be 10 µM.
